# From patent US12150971B2, “Method and composition for preventing and treating Covid-19 and long Covid” (priority 2021, dated 2024)
# Tested on: xCT
# Test: Western blot of xCT in THP-1-derived macrophages
# Type: cell-based, human
# Conditions: 5 mM NAC 1 h pretreatment, then 100 μg/ml Virofree 6 or 24 h
# Protocol: The cells were exposed to different treatments for the indicated time, the cells were lysed on ice with lysis buffer. The cell lysate was cleared by centrifugation at 12,000 g for 10 min. The lysate was resolved by sodium dodecyl sulfate-polyacrylamide gel electrophoresis, and the proteins were transferred to a polyvinylidene fluoride membrane. After blocking with 5% non-fat dry milk in Tris-buffered saline, the membrane was incubated overnight with the desired primary antibody (FPN (Novus Biologicals, NBP1-21502, 1:1000), FTH-1 (Cell signaling, 4393S, 1:1000), GPX4 (Abcam, ab125066, 1:1000), TFRC (Cell signaling, 13208s, 1:1000), xCT (Cell signaling, 17681s, 1:1000), GAPDH (GeneTex, GTX100118, 1:10,000), α-SMA (Abcam, ab5694, 1:1000), Fibronectin (Santa Cruz, sc-9068, 1:1000), N-cadherin (BD, 610920, 1:1000), β-actin (GeneTex, GTX109639, 1:10000)). Subsequently, the membrane was incubated with an appropriate secondary antibody. Immunoreactive bands were visualized using the enhanced chemiluminescence (ECL) method and captured by a Luminescence Imaging system (LAS 4000™, Fuji Photo Film Co. Ltd).
smiles,measurement,value
CC(=O)N[C@@H](CS)C(=O)O [N-acetyl cysteine],xCT expression mediated by Virofree after NAC pretreatment,significantly decrease
